Broadly, the IC50 is the concentration at which inhibition is half-maximal.

The target of test [1] is T1, thrombin (Homo sapiens, UniProt P00734). As to the kind of experiment: Measurement of the thrombin inhibition in buffer. Format: biochemical. The settings on record: human thrombin 0.06 nmol/l in Tris buffer pH 7.4, 22° C., substrate Boc-Asp(OBzl)-Pro-Arg-AMC; in some cases means of individual determinations. On the procedure:
To determine the thrombin inhibition of the substances listed above, a biochemical test system is constructed in which the conversion of a thrombin substrate is used for determining the enzymatic activity of human thrombin. Here, thrombin cleaves aminomethylcoumarin, which is measured fluorescently, from the peptic substrate. The determinations are carried out in microtitre plates.
Substances to be tested are dissolved in various concentrations in dimethyl sulphoxide and incubated for 15 min with human thrombin (0.06 nmol/l dissolved in 50 mmol/l of Tris buffer [C,C,C-tris(hydroxymethyl)aminomethane], 100 mmol/l of sodium chloride, 0.1% BSA [bovine serum albumin], pH 7.4) at 22° C. The substrate (5 μmol/l Boc-Asp(OBzl)-Pro-Arg-AMC from Bachem) is then added. After 30 min of incubation, the sample is excited at a wavelength of 360 nm and the emission is measured at 460 nm. The measured emissions of the test mixtures with test substance are compared to the control mixtures without test substance (only dimethyl sulphoxide instead of test substance in dimethyl sulphoxide) and IC50 values are calculated from the concentration/activity relationships. Representative activity data from this test are given in Table 1 below (in some cases as means of individual determinations): […]

The target in test [2] is T1, thrombin. Kind of test: Determination of the thrombin-inhibitory activity in plasma samples (ecarin-activated). Format: biochemical. The settings on record: citrate plasma, ecarin activation, fluorogenic thrombin substrate; in some cases means of individual determinations. The procedure: To determine the inhibition of thrombin in plasma samples, plasma […] is activated by ecarin. Thrombin activity and/or its inhibition by potential inhibitors is/are then measured fluorenscently by addition of a substrate.
The substances to be tested are dissolved in various concentrations in dimethyl sulphoxide and diluted with water. In white 96-well flat-bottomed plates, 20 μl of substance dilution are mixed with 20 μl of ecarin solution (ecarin reagent, from Sigma E-0504, final concentration 20 mU per reaction) in Ca buffer (200 mM Hepes+560 mM sodium chloride+10 mM calcium chloride+0.4% PEG) or with 20 μl of Ca buffer (as unstimulated control). Furthermore, 20 μl of fluorogenic thrombin substrate (from Bachem 1-1120, final concentration 50 μmol/1) and 20 μl of citrate plasma (from Octapharma) are added, and the mixture is homogenized well. The plate is measured in a SpectraFluorplus Reader using a 360 nm excitation filter and a 465 nm emission filter every minute over 20 minutes. […] Representative activity data from this test are given in Table 2 below (in some cases as means of individual determinations): […]

With `COc1cc(C(=O)N2CCCC2(C)C(=O)N2CC(F)(F)C2)cc2nc(NCc3cc(Cl)ccn3)oc12` (single isomer, unassigned) [Example 16, (2-{[(4-Chloropyridin-2-yl)methyl]amino}-7-methoxy-1,3-benzoxazol-5-yl){2-[(3,3-difluoroazetidin-1-yl)carbonyl]-2-methylpyrrolidin-1-yl}methanone], the IC50 against thrombin [1] came to 30 nM; at thrombin [2], 36 nM.

With `COc1cc(C(=O)N2CCCC2(C)C(=O)N2CC(F)C2)cc2nc(NCc3cc(Cl)ccn3)oc12` (single isomer, unassigned) [Example 17, (2-{[(4-Chloropyridin-2-yl)methyl]amino}-7-methoxy-1,3-benzoxazol-5-yl){2-[(3-fluoroazetidin-1-yl)carbonyl]-2-methylpyrrolidin-1-yl}methanone], the IC50 against thrombin [1] came out at 33 nM; on thrombin [2], 52 nM.

Regarding `COc1cc(C(=O)N2CCCC2(C)C(=O)N2CCOCC2)cc2nc(NCc3cc(Cl)ccn3)oc12` (single isomer, unassigned) [Example 18, (2-{[(4-Chloropyridin-2-yl)methyl]amino}-7-methoxy-1,3-benzoxazol-5-yl) [2-methyl-2-(morpholin-4-ylcarbonyl)pyrrolidin-1-yl]methanone], the values for the IC50 against thrombin [1] and on thrombin [2] were 17 nM and 27 nM, respectively.

As to `COc1cc(C(=O)N2CC(C)OCC2(C)CO)cc2nc(NCc3cc(Cl)ccn3)oc12` (single isomer, unassigned) [Example 19, (2-{[(4-Chloropyridin-2-yl)methyl]amino}-7-methoxy-1,3-benzoxazol-5-yl) [5-(hydroxymethyl)-2,5-dimethylmorpholin-4-yl]methanone], the concentration for half-maximal inhibition (IC50) against thrombin [1] was found to be 34 nM; against thrombin [2], 53 nM.

Regarding `COc1cc(C(=O)N2CC(C)OCC2(C)CO)cc2nc(NCc3cc(Cl)ccn3)oc12` (single isomer, unassigned) [Example 20, (2-{[(4-Chloropyridin-2-yl)methyl]amino}-7-methoxy-1,3-benzoxazol-5-yl) [5-(hydroxymethyl)-2,5-dimethylmorpholin-4-yl]methanone], the IC50 at thrombin [1] was found to be 36 nM; at thrombin [2], 66 nM.

On to `COc1cc(C(=O)N2CC(C)(CC(C)O)OCC2CF)cc2nc(NCc3cc(Cl)ccn3)oc12` (single isomer, unassigned) [Example 23, (2-{[(4-Chloropyridin-2-yl)methyl]amino}-7-methoxy-1,3-benzoxazol-5-yl) [5-(fluoromethyl)-2-(2-hydroxypropyl)-2-methylmorpholin-4-yl]methanone], for which the IC50 is 0.8 nM against thrombin [1] and 6.5 nM at thrombin [2].

For `COc1cc(C(=O)N2CC(C)(CCO)OC[C@H]2C)cc2nc(NCc3cc(Cl)ccn3)oc12` (single isomer, unassigned) [Example 24], the figures for the IC50 against thrombin [1] and against thrombin [2] were 2.5 nM and 12 nM, respectively.

As to `COc1cc(C(=O)N2CC(C)(CC(C)O)OC[C@H]2C)cc2nc(NCc3cc(Cl)ccn3)oc12` (single isomer, unassigned) [Example 25], the values for the IC50 against thrombin [1] and on thrombin [2] were 1 nM and 6.8 nM, respectively.

On to `COc1cc(C(=O)N2CC(C)(CC(C)O)OC[C@H]2C)cc2nc(NC(C)c3cc(Cl)ccn3)oc12` (single isomer, unassigned) [Example 27], for which the IC50 worked out at 2.1 nM against thrombin [1] and 7.6 nM against thrombin [2].

For the compound `CC[C@@H]1COC(C)(CCO)CN1C(=O)c1cc(OC)c2oc(NCc3cc(Cl)ccn3)nc2c1` (single isomer, unassigned) [Example 29], the IC50 amounted to 1.9 nM against thrombin [1] and 8.8 nM against thrombin [2].

For `COCC1COC(C)(CCO)CN1C(=O)c1cc(OC)c2oc(NCc3cc(Cl)ccn3)nc2c1` (single isomer, unassigned) [Example 31], the results for the IC50 on thrombin [1] and on thrombin [2] were 11 nM and 34 nM, respectively.

Turning to `COc1cc(C(=O)N2CC(C)(CCO)OCC2(C)C)cc2nc(NCc3cc(Cl)ccn3)oc12` (single isomer, unassigned) [Example 33, (2-{[(4-Chloropyridin-2-yl)methyl]amino}-7-methoxy-1,3-benzoxazol-5-yl) [2-(2-hydroxyethyl)-2,5,5-trimethylmorpholin-4-yl]methanone], the IC50 worked out at 7.2 nM at thrombin [1] and 14 nM against thrombin [2].

For the compound `COc1cc(C(=O)N2CC(C)(CC(C)O)OCC2(C)C)cc2nc(NCc3cc(Cl)ccn3)oc12` (single isomer, unassigned) [Example 35, (2-{[(4-Chloropyridin-2-yl)methyl]amino}-7-methoxy-1,3-benzoxazol-5-yl) [2-(2-hydroxypropyl)-2,5,5-trimethylmorpholin-4-yl]methanone], the IC50 came to 5 nM against thrombin [1] and 71 nM on thrombin [2].

Regarding `COc1cc(C(=O)N2CC(C)OCC2C(C)(C)O)cc2nc(NCc3cc(Cl)ccn3)oc12` (single isomer, unassigned) [Example 36, (2-{[(4-Chloropyridin-2-yl)methyl]amino}-7-methoxy-1,3-benzoxazol-5-yl) [5-(2-hydroxypropan-2-yl)-2-methylmorpholin-4-yl]methanone], the IC50 was 39 nM against thrombin [1] and 57 nM at thrombin [2].

Turning to `COc1cc(C(=O)N2CC(C)OCC2C(C)(C)O)cc2nc(NCc3cc(Cl)ccn3)oc12` (single isomer, unassigned) [Example 37, (2-{[(4-Chloropyridin-2-yl)methyl]amino}-7-methoxy-1,3-benzoxazol-5-yl) [5-(2-hydroxypropan-2-yl)-2-methylmorpholin-4-yl]methanone], the IC50 on thrombin [1] is 37 nM; against thrombin [2], 44 nM.

For `COc1cc(C(=O)N2CC(C)(C)OCC2(C)CO)cc2nc(NCc3cc(Cl)ccn3)oc12` (single isomer, unassigned) [Example 39, (2-{[(4-Chloropyridin-2-yl)methyl]amino}-7-methoxy-1,3-benzoxazol-5-yl) [5-(hydroxymethyl)-2,2,5-trimethylmorpholin-4-yl]methanone], the IC50 against thrombin [1] was 11 nM; at thrombin [2], 40 nM.

`COc1cc(C(=O)N2CC(C)(C)OCC2(C)CO)cc2nc(NCc3cc(Cl)ccn3)oc12` (single isomer, unassigned) [Example 40, (2-{[(4-Chloropyridin-2-yl)methyl]amino}-7-methoxy-1,3-benzoxazol-5-yl) [5-(hydroxymethyl)-2,2,5-trimethylmorpholin-4-yl]methanone]: the concentration for half-maximal inhibition (IC50) was found to be 18 nM against thrombin [1] and 33 nM against thrombin [2].

`COc1cc(C(=O)N2CC(C)(C)OCC2CF)cc2nc(NCc3cc(Cl)ccn3)oc12` (single isomer, unassigned) [Example 43, (2-{[(4-Chloropyridin-2-yl)methyl]amino}-7-methoxy-1,3-benzoxazol-5-yl) [5-(fluoromethyl)-2,2-dimethylmorpholin-4-yl]methanone]: the half-maximal inhibitory concentration (IC50) on thrombin [1] is 18 nM; against thrombin [2] it was 17 nM.

Take `COc1cc(C(=O)N2CC(C)OCC2(C)C)cc2nc(NCc3cc(Cl)ccn3)oc12` (single isomer, unassigned) [Example 45, (2-{[(4-Chloropyridin-2-yl)methyl]amino}-7-methoxy-1,3-benzoxazol-5-yl)(2,5,5-trimethylmorpholin-4-yl)methanone]: the half-inhibitory concentration (IC50) against thrombin [1] came to 24 nM; against thrombin [2] it was 41 nM.

With `COc1cc(C(=O)N2CC(C)OCC2C2CC(O)C2)cc2nc(NCc3cc(Cl)ccn3)oc12` (single isomer, unassigned) [Example 47, (2-{[(4-Chloropyridin-2-yl)methyl]amino}-7-methoxy-1,3-benzoxazol-5-yl) [5-(3-hydroxycyclobutyl)-2-methylmorpholin-4-yl]methanone], the IC50 at thrombin [1] was 11 nM; on thrombin [2] it was 24 nM.

For `COc1cc(C(=O)N2CC(C)OCC2C2CC(O)C2)cc2nc(NCc3cc(Cl)ccn3)oc12` (single isomer, unassigned) [Example 48, (2-{[(4-Chloropyridin-2-yl)methyl]amino}-7-methoxy-1,3-benzoxazol-5-yl) [5-(3-hydroxycyclobutyl)-2-methylmorpholin-4-yl]methanone], the half-inhibitory concentration (IC50) against thrombin [1] was determined as 11 nM; at thrombin [2], 16 nM.

As to `COc1cc(C(=O)N2CC(C)OCC2C2CC(O)C2)cc2nc(NCc3cc(Cl)ccn3)oc12` (single isomer, unassigned) [Example 49, (2-{[(4-Chloropyridin-2-yl)methyl]amino}-7-methoxy-1,3-benzoxazol-5-yl) [5-(3-hydroxycyclobutyl)-2-methylmorpholin-4-yl]methanone], the half-inhibitory concentration (IC50) at thrombin [1] was determined as 24 nM; against thrombin [2], 53 nM.

The record behind these values is patent US20160108027A1, “SUBSTITUTED BENZOXAZOLES” (BAYER PHARMA AKTIENGESELLSCHAFT, priority 2013, published 2016).
